Measurements reported in patent US7838659B2, “Herpesvirus ribozymes and vectors” (priority 2003, dated 2010).

Assays:
Assay type in all cases: cell-based
[1] = test system: HSV-1 KOS (drug sensitive); assay: Multi-step replication, comparison with acyclovir, strain KOS; details: MOI 10^−3, 48 hours, rabbit skin cells
Experimental: (§1) Four groups were included when testing the impact of the ribozyme on replication of drug resistant HSV-1 strains: mock infection and Ad-UL20 Rz treatments were performed as before; an adenovirus expressing GFP was used instead of ψ5; and an acyclovir (ACV) treatment (0.1 μM) was included. The dosage of acyclovir was determined by the threshold dose needed to distinguish drug resistance of HSV-1 (Thi, T. N., C. Deback, I. Malet, P. Bonnafous, Z. Ait-Arkoub, and H. Agut. 2006. Rapid determination of antiviral drug susceptibility of herpes simplex virus types 1 and 2 by real-time PCR. Antiviral Res 69:152-7). Forty-eight hours were allowed for HSV-1 infection to develop before cell lysates were harvested for titration. Five HSV-1 strains were tested: 17syn+ and KOS are drug sensitive strains, and PAAr5, tkLTRZ1, and ACG^r4 are drug resistant isolates.
(§2) UL20-Rz154 inhibits viral replication of HSV-1 drug resistant strains. Ad-UL20 Rz154 was compared with acyclovir treatment in a multi-step infection at an MOI of 10^−3. […] In the case of PAAr5 infection, UL20 ribozyme reduced viral production by 99%; against tkLTRZ1 infection, it reduced virus yield by 76%; and against ACGr4 by 70%. Therefore, knocking down the expression of the UL20 gene led to a significant inhibition of HSV-1 viral replication in viral strains that were resistant to a conventional antiviral drug.

[2] = test system: HSV-1 tkLTRZ1 (drug resistant); assay: Multi-step replication, comparison with acyclovir, strain tkLTRZ1; details: strain tkLTRZ1, MOI 10^−3, 48 hours, rabbit skin cells
Experimental: as §1, §2

[3] = test system: HSV-1 ACGr4 (drug resistant); assay: Multi-step replication, comparison with acyclovir, strain ACGr4; details: strain ACGr4, MOI 10^−3, 48 hours, rabbit skin cells
Experimental: as §1, §2

[4] = test system: HSV-1 17syn+ (drug sensitive); assay: Multi-step replication, comparison with acyclovir, strain 17syn+; details: MOI 10^−3, 48 hours, rabbit skin cells
Experimental: as §1, §2

[5] = test system: HSV-1 PAAr5 (drug resistant); assay: Multi-step replication, comparison with acyclovir, strain PAAr5; details: strain PAAr5, MOI 10^−3, 48 hours, rabbit skin cells
Experimental: as §1, §2

Nc1nc2c(ncn2COCCO)c(=O)[nH]1 [acyclovir]
inhibition of HSV-1 viral production [1]: 80% | reduction of virus yield [2]: no significant difference in HSV yields | reduction of virus yield [3]: no significant difference in HSV yields | inhibition of HSV-1 viral production [4]: 99% | reduction of viral production [5]: no significant difference in HSV yields
